Key:
[1] = Descriptive sensory evaluation of traumatic acid and 3-dodecenedioic acid in sugar water; settings: 5 ppm in sugar water (4% sucrose), summary statement
Description: Sugar water (4% sucrose in drinking water) was prepared and used as a base solution. Traumatic acid (purchased from Cayman Chemical Company) and 3-dodecenedioic acid (isolated from a B. nivea extract) were added to the sugar water and taste descriptive sensory evaluations were performed (Table 2).

[2] = Comparison of sweetness and mouthfeel enhancement and off-flavor masking of sebacic acid with analogs; settings: at 2 ppm; analogs: adipic, pimelic, suberic, undecanedioic, dodecanedioic, 1,11-undecanedicarboxylic, tetradecanedioic, hexadecanedioic acid
[3] = Descriptive sensory evaluation of traumatic acid in different applications
Description: Descriptive sensory evaluations were carried out using different amounts of traumatic acid in different applications.

[4] = Descriptive sensory evaluation of sebacic acid in different applications
Description: Descriptive sensory evaluations were carried out using different amounts of sebacic acid in different applications.

| SMILES | Enhancement of sweetness and mouthfeel of sugar water [1] | Sweetness and mouthfeel enhancement as well as off-flavor masking, compared among dicarboxylic acids [2] | Taste Evaluation ([3]; traumatic acid 40 ppm in 3% Sugar + 0.05% Citric Acid Water Solution) | Taste Evaluation ([3]; traumatic acid 40 ppm in Water) | Taste Evaluation ([4]; sebacic acid 40 ppm in 3% Sugar + 0.05% Citric Acid Water Solution) | Taste Evaluation ([4]; sebacic acid 40 ppm in Water) |
| --- | --- | --- | --- | --- | --- | --- |
| O=C(O)CC=CCCCCCCCC(=O)O [3-Dodecenedioic acid, 3-dodecenedioic acid] | enhanced the sweetness and mouthfeel of sugar water | the strongest and the longest-lasting effect | – | – | – | – |
| O=C(O)C=CCCCCCCCCC(=O)O [Traumatic acid, 2-dodecenedioic acid] | enhanced the sweetness and mouthfeel of sugar water | the strongest and the longest-lasting effect | Fatty and oily | Fatty and oily | – | – |
| O=C(O)CCCCCCCCC(=O)O [Sebacic Acid, decanedioic acid] | – | – | – | – | Fatty and oily | Fatty and oily |
